Assay results: patent US4048334A, “Active derivatives of methylamino in therapeutic compositions and methods of use” (priority 1974, dated 1977)

Assays:
[1] = test system: neuroleptic-induced catatonia; assay: Inhibition of neuroleptic-induced catatonia (prochlorperazine); type: in vivo, rat (male, OFA strain); settings: for Inhibition of the neuroleptic-induced catatonia: 30 min before prochlorperazine; for activity compared with amantadine, neuroleptic-induced catatonia: versus amantadine
Method: 2. Inhibition of neuroleptic-induced catatonia
The blocking of dopaminergic receptors by neuroleptics in the extra-pyramidal system induces catatonia in the rat. Catatonia is differentiated from sedative properties by means of the test used hereabove for reserpine-induced catatonia. The same system of scoring was also employed in the present case.
An oral dose of the compound to be studied in aqueous solution was administered to batches of 10 male rats of the OFA strain weighing about 150 to 200 g. […] Three hours after the injection of this latter compound, catatonia was measured. An identical trial was also carried out with control animals which received prochlorperazine but none of the compounds under study.
The scoring system, used was that given hereabove in Table I.

[2] = test system: reserpine-induced catatonia; assay: Inhibition of reserpine-induced catatonia; type: in vivo, rat (male, OFA strain); settings: for Inhibition of reserpine-induced catatonia: 30 min before reserpine
Method: 1. Inhibition of reserpine-induced catatonia
After sufficient doses of reserpine have been administered to the rat, a series of symptoms occur, more particularly ptosis, catatonia and a drop in central temperature. These symptoms are caused by the depletion of the intragranular reserve pool of boigenetic amines at the synaptic terminals.
An oral dose of the compound to be studied in aqueous solution was administered to batches of 10 male rats of the OFA strain weighing about 150 to 200 g. Thirty minutes later a dose of 5 mg/kg of reserpine was given by intraperitoneal route. Three hours after the injection of reserpine, the animals were suspended by the four paws to a horizontally stretched wire fixed at 15 cm from the ground. The catatonic animals were those which maintained the position so given for at least 30 seconds. […] The maximum score was therefore 10 per batch. An identical trial was undertaken with control animals which received reserpine but none of the compounds being studied.

CCCC(N)(CCC)CCC
score, neuroleptic-induced catatonia ([1]; 3 mg/kg): 4 (100% inhibition of catatonia in comparison with the controls (namely a score of 0 per studied batch)) | score, reserpine-induced catatonia ([2]; 3 mg/kg): 4 (100% inhibition of catatonia in comparison with the controls (namely a score of 0 per studied batch))

CCCC(N)(CC)CC(C)C (stereo not drawn) [Compound 3, 1-Ethyl-1-isobutyl-n-butylamine]
Inhibition of the neuroleptic-induced catatonia ([1]; 20 mg/kg oral): 3 (70 to 80% inhibition of catatonia in comparison with the controls (namely a score of 2 or 3 per studied batch)) | Inhibition of reserpine-induced catatonia ([2]; 20 mg/kg oral): 3 (70 to 80% inhibition of catatonia in comparison with the controls (namely a score of 2 or 3 per studied batch))

CCCCC(N)(CC)CCC (stereo not drawn) [Compound 4, 1-Ethyl-1-n-propyl-n-pentylamine]
Inhibition of the neuroleptic-induced catatonia ([1]; 20 mg/kg oral): 3 (70 to 80% inhibition of catatonia in comparison with the controls (namely a score of 2 or 3 per studied batch)) | Inhibition of reserpine-induced catatonia ([2]; 20 mg/kg oral): 3 (70 to 80% inhibition of catatonia in comparison with the controls (namely a score of 2 or 3 per studied batch))

CCCC(N)(CCC)CC(C)C [Compound 5, 1-n-Propyl-1-isobutyl-n-butylamine]
Inhibition of the neuroleptic-induced catatonia ([1]; 20 mg/kg oral): 4 (100% inhibition of catatonia in comparison with the controls (namely a score of 0 per studied batch)) | activity compared with amantadine, neuroleptic-induced catatonia [1]: five times more active than amantadine | Inhibition of reserpine-induced catatonia ([2]; 20 mg/kg oral): 2 (50% inhibition of catationia in comprison with the controls (namely a score of 5 per studied batch))

CCCC(C)CC(C)(N)CC (stereo not drawn) [Compound 7, 1,3-Dimethyl-1-ethyl-n-hexylamine]
Inhibition of the neuroleptic-induced catatonia ([1]; 40 mg/kg oral): 1 (20 to 30% inhibition of catatonia in comparison with the controls (namely a score of 7 to 8 per studied batch)) | Inhibition of reserpine-induced catatonia ([2]; 20 mg/kg oral): 1 (20 to 30% inhibition of catatonia in comparison with the controls (namely a score of 7 to 8 per studied batch))

CCCCC(C)(N)CC(C)C (stereo not drawn) [Compound 8, 1-Methyl-1-isobutyl-n-pentylamine]
Inhibition of the neuroleptic-induced catatonia ([1]; 50 mg/kg oral): 4 (100% inhibition of catatonia in comparison with the controls (namely a score of 0 per studied batch)) | activity compared with amantadine, neuroleptic-induced catatonia [1]: twice as active | Inhibition of reserpine-induced catatonia ([2]; 20 mg/kg oral): 1 (20 to 30% inhibition of catatonia in comparison with the controls (namely a score of 7 to 8 per studied batch))

CCCCCCCC(C)(C)N [Compound 10, 1,1-Dimethyl-n-octylamine]
Inhibition of the neuroleptic-induced catatonia ([1]; 50 mg/kg oral): 1 (20 to 30% inhibition of catatonia in comparison with the controls (namely a score of 7 to 8 per studied batch)) | Inhibition of reserpine-induced catatonia ([2]; 20 mg/kg oral): 1 (20 to 30% inhibition of catatonia in comparison with the controls (namely a score of 7 to 8 per studied batch))

C=CCC(N)(CC=C)CC=C [Compound 11, 1,1-Di-(2-propen-1-yl)-3-buten-1-ylamine]
Inhibition of the neuroleptic-induced catatonia ([1]; 20 mg/kg oral): 1 (20 to 30% inhibition of catatonia in comparison with the controls (namely a score of 7 to 8 per studied batch)) | Inhibition of reserpine-induced catatonia ([2]; 20 mg/kg oral): 1 (20 to 30% inhibition of catatonia in comparison with the controls (namely a score of 7 to 8 per studied batch))

CCCCC(C)CC(C)(C)N (stereo not drawn) [Compound 13, 1,1,3-Trimethyl-n-heptylamine]
Inhibition of the neuroleptic-induced catatonia ([1]; 50 mg/kg oral): 1 (20 to 30% inhibition of catatonia in comparison with the controls (namely a score of 7 to 8 per studied batch)) | Inhibition of reserpine-induced catatonia ([2]; 25 mg/kg oral): 1 (20 to 30% inhibition of catatonia in comparison with the controls (namely a score of 7 to 8 per studied batch))

CCCC(N)(CC)CC [Compound 14, 1,1-Diethyl-n-butylamine]
Inhibition of the neuroleptic-induced catatonia ([1]; 50 mg/kg oral): 3 (70 to 80% inhibition of catatonia in comparison with the controls (namely a score of 2 or 3 per studied batch)) | Inhibition of reserpine-induced catatonia ([2]; 50 mg/kg oral): 3 (70 to 80% inhibition of catatonia in comparison with the controls (namely a score of 2 or 3 per studied batch))

CCC(N)(CC)CC [Compound 15, 1,1-Diethyl-n-propylamine]
Inhibition of the neuroleptic-induced catatonia ([1]; 50 mg/kg oral): 3 (70 to 80% inhibition of catatonia in comparison with the controls (namely a score of 2 or 3 per studied batch)) | Inhibition of reserpine-induced catatonia ([2]; 50 mg/kg oral): 1 (20 to 30% inhibition of catatonia in comparison with the controls (namely a score of 7 to 8 per studied batch))

CCC(C)(C)N [Compound 16, 1,1-Dimethyl-n-propylamine]
Inhibition of the neuroleptic-induced catatonia ([1]; 10 mg/kg oral): 1 (20 to 30% inhibition of catatonia in comparison with the controls (namely a score of 7 to 8 per studied batch)) | Inhibition of reserpine-induced catatonia ([2]; 50 mg/kg oral): 1 (20 to 30% inhibition of catatonia in comparison with the controls (namely a score of 7 to 8 per studied batch))

CCCC(CC)CC(C)(C)N (stereo not drawn) [Compound 17, 1,1-Dimethyl-3-ethyl-n-hexylamine]
Inhibition of the neuroleptic-induced catatonia ([1]; 11 mg/kg oral): 2 (50% inhibition of catationia in comprison with the controls (namely a score of 5 per studied batch)) | Inhibition of reserpine-induced catatonia ([2]; 11 mg/kg oral): 1 (20 to 30% inhibition of catatonia in comparison with the controls (namely a score of 7 to 8 per studied batch))

CCCC(N)(CC(C)C)CC(C)C [Compound 18, 1,1-Diisobutyl-n-butylamine]
Inhibition of the neuroleptic-induced catatonia ([1]; 12 mg/kg oral): 1 (20 to 30% inhibition of catatonia in comparison with the controls (namely a score of 7 to 8 per studied batch)) | Inhibition of reserpine-induced catatonia ([2]; 12 mg/kg oral): 2 (50% inhibition of catationia in comprison with the controls (namely a score of 5 per studied batch))

CCCC(N)(CCC)C(C)C [Compound 19, 1-n-Propyl-1-isopropyl-n-butylamine]
Inhibition of the neuroleptic-induced catatonia ([1]; 6 mg/kg oral): 3 (70 to 80% inhibition of catatonia in comparison with the controls (namely a score of 2 or 3 per studied batch)) | Inhibition of reserpine-induced catatonia ([2]; 6 mg/kg oral): 3 (70 to 80% inhibition of catatonia in comparison with the controls (namely a score of 2 or 3 per studied batch))

CCCC(N)(CCC)C(C)(C)C [Compound 20, 1-n-Propyl-1-tert-butyl-n-butylamine]
Inhibition of the neuroleptic-induced catatonia ([1]; 50 mg/kg oral): 1 (20 to 30% inhibition of catatonia in comparison with the controls (namely a score of 7 to 8 per studied batch)) | Inhibition of reserpine-induced catatonia ([2]; 6 mg/kg oral): 2 (50% inhibition of catationia in comprison with the controls (namely a score of 5 per studied batch))

C#CC(N)(CCC)CCC [Compound 21, 1,1-Di-n-propyl-2-propyn-1-ylamine]
Inhibition of the neuroleptic-induced catatonia ([1]; 30 mg/kg oral): 1 (20 to 30% inhibition of catatonia in comparison with the controls (namely a score of 7 to 8 per studied batch)) | Inhibition of reserpine-induced catatonia ([2]; 30 mg/kg oral): 2 (50% inhibition of catationia in comprison with the controls (namely a score of 5 per studied batch))

CCC#CC(N)(CC)CC [Compound 22, 1,1-Diethyl-2-pentyn-1-ylamine]
Inhibition of the neuroleptic-induced catatonia ([1]; 30 mg/kg oral): 1 (20 to 30% inhibition of catatonia in comparison with the controls (namely a score of 7 to 8 per studied batch)) | Inhibition of reserpine-induced catatonia ([2]; 60 mg/kg oral): 1 (20 to 30% inhibition of catatonia in comparison with the controls (namely a score of 7 to 8 per studied batch))

CCC=CC(N)(CC)CC [Compound 23, 1,1-Diethyl-2-penten-1-ylamine]
Inhibition of the neuroleptic-induced catatonia ([1]; 30 mg/kg oral): 1 (20 to 30% inhibition of catatonia in comparison with the controls (namely a score of 7 to 8 per studied batch)) | Inhibition of reserpine-induced catatonia ([2]; 60 mg/kg oral): 1 (20 to 30% inhibition of catatonia in comparison with the controls (namely a score of 7 to 8 per studied batch))

CCC#CC(N)(CCC)CCC [Compound 24, 1,1-Di-n-propyl-2-pentyn-1-ylamine]
Inhibition of the neuroleptic-induced catatonia ([1]; 20 mg/kg oral): 2 (50% inhibition of catationia in comprison with the controls (namely a score of 5 per studied batch)) | Inhibition of reserpine-induced catatonia ([2]; 20 mg/kg oral): 1 (20 to 30% inhibition of catatonia in comparison with the controls (namely a score of 7 to 8 per studied batch))
